Experiments:
[1] = tested on: Amaranthus caudatus cotyledon/hypocotyl explants; test: Amaranthus bioassay (betacyanin content); set-up: species or system Amaranthus caudatus var. atropurpurea; conditions: for concentration with highest activity: betacyanin content after 48 h incubation, tested 10^−8 M to 10^−4 M; for Activity (%) [10^−5 mol · l^−1 BAP = 100%]: betacyanin content at the concentration with highest activity, 10^−5 M BAP = 100%
Method: Testing of novel compounds for typical cytokinin activity in Amaranthus bioassay. A standard Amaranthus bioassay was performed with several modifications. The seeds of Amaranthus caudatus var. atropurpurea were surface-sterilized in 10% (w/v) N-chlorobenzenesulfonamide for 10 min and washed 5 times with deionized water. They were placed in 14 cm Petri dishes containing paper tissues saturated with deionized water. After 72 h of cultivation at 25° C. in darkness, the roots of the seedlings were cut off. The explants, consisting of two cotyledons and hypocotyls, were placed in 5 cm Petri dishes onto two layers of filter paper soaked with 1 ml of the incubation medium containing 10 mmol of NA2HPO4—KH2PO4, pH 6.8, 5 mmol of tyrosine and the compound to be tested. There were 20 explants per dish. The procedure was carried out under a green safe light in a darkroom. […] The concentration of betacyanin was determined from the absorbencies at 537 nm and 620 nm as follows: DA=A537 nm−A620 nm. […] Relative activity of the compound at this concentration was calculated. The activity obtained for 10^−5 M 6-benzylaminopurine (BAP) was defined as 100%.
(§1) The compounds to be tested were dissolved in dimethylsulfoxide (DMSO) and the solution brought up to 10^−3 M with distilled water.

[2] = tested on: cytokinin-dependent tobacco callus Nicotiana tabacum L. cv. Wisconsin 38; test: Cytokinin activity in tobacco callus bioassay; type: cell-based; conditions: for concentration with highest activity: growth of tobacco callus, four weeks of cultivation, tested 10^−8 M to 10^−4 M; for Activity (%) [10^−5 mol · l^−1 BAP = 100%]: increase of fresh callus weight at the concentration with highest activity, 10^−5 M BAP = 100%
Method: Estimation of cytokinin biological activity of novel compounds in callus bioassay. Cytokinin-dependent tobacco callus Nicotiana tabacum L. cv. […] Subcultivation was carried out every three weeks. Fourteen days before the bioassay, the callus tissue was transferred to the media without the compound tested. The biological activity was determined from the increase of the fresh callus weight after four weeks of cultivation. Five replicates were prepared for each concentration of the compound tested and the entire test was repeated twice. […] The relative activity of the compound at this concentration was calculated (Table 8). […] The compounds to be tested were dissolved in dimethylsulfoxide (DMSO) and the solution brought up to 10^−3 M with distilled water. This stock solution was further diluted with the respective media used for the biotest to a concentration ranging from 10^−8 M to 10^−4 M.

excised wheat leaf tips = test: Antisenescence test, retention of chlorophyll in excised wheat leaf tips; set-up: species or system Triticum aestivum cv. Hereward; conditions: for activity (%) [10^−4 mol · l^−1 BAP = 100%]: retention of chlorophyll in excised wheat leaf tips at the concentration with highest activity, 10 replicate determinations; for concentration with highest activity: retention of chlorophyll in excised wheat leaf tips, tested range 10^−8 M to 10^−4 M, 96 h in the dark at 25° C.
Method: Testing of antisenescence properties of novel cytokinin compounds on wheat leaf segments. Seeds of winter wheat, Triticum aestivum cv. Hereward, were washed under running water for 24 hours and then sown on vermiculite soaked with the Knop's solution. They were placed in the grow chamber at 25° C. with a 16 h-8 h light period at 50 mmol.m^−2.s^−1. After 7 days, the first leaf was fully developed and the second leaf had started to grow. A 35 mm long tip section of the first leaf, was removed from each of 5 seedlings and trimmed slightly to a combined weight of 100 mg. The basal ends of the five leaf tips were placed in the wells of a microtiter polystyrene plate containing […] of the solution of the tested compound each. The entire plate was inserted into a plastic box lined with paper tissues soaked with distilled water to prevent leaf sections from drying out. After 96 h incubation in the dark at 25° C., the leaves were removed and chlorophyll was extracted by heating at 80° C. for 10 min in 5 ml of 80% ethanol (v/v). The sample volume was then restored to 5 ml by the addition of 80% ethanol (v/v). The absorbance of the extract was recorded at 665 nm. In addition, chlorophyll extracts from fresh leaves and leaf tips incubated in deionized water were measured. […] Relative activity of the compound at this concentration was calculated (Table 7). The activity obtained for 10^−4 M 6-benzylaminopurine (BAP) was defined as 100%. The values shown are means of five replicates and the whole experiment was repeated twice.
as §1

[3] = tested on: human diploid fibroblasts (HCA cells, HCA20, HCA40, HCA60); test: Senescent cells (β-galactosidase staining) in culture of human fibroblasts; type: cell-based
Method: In this example, human diploid fibroblasts (HCA cells of various passage levels: passage 20—designated HCA20; passage 40—designated HCA40; passage 60—designated HCA60) were stained for β-galactosidase activity. The medium used for the cell cultivation was removed, the cells were washed twice in […], and fixed in 2-3 ml of fixing solution comprised of a 2% formaldehyde and 0.2% glutaraldehyde in PBS. The cells were incubated at room temperature for 5 minutes, and then washed twice with PBS. The cells were subsequently incubated at 37° C.

SMILES | concentration with highest activity [1] | Activity (%) [10^−5 mol · l^−1 BAP = 100%] [1] | concentration with highest activity [2] | Activity (%) [10^−5 mol · l^−1 BAP = 100%] [2] | activity (%) [10^−4 mol · l^−1 BAP = 100%] (excised wheat leaf tips) | concentration with highest activity (excised wheat leaf tips) | SENESCENT CELLS (%) HCA20 ([3]; human fibroblasts passage 20 (HCA20)) | SENESCENT CELLS (%) HCA40 ([3]; human fibroblasts passage 40 (HCA40)) | SENESCENT CELLS (%) HCA60 ([3]; human fibroblasts passage 60 (HCA60))
COc1cccc(CNc2ncnc3c2ncn3CCCCCl)c1O | 10^−4 mol · l^−1 | 53% | – | – | – | – | – | – | –
Oc1ccc(CNc2ncnc3c2ncn3C2CCCCO2)c(O)c1 (stereo not shown) | – | – | 10^−5 mol · l^−1 | 5% | – | – | – | – | –
Oc1ccc(O)c(CNc2ncnc3c2ncn3C2CCCCO2)c1 (stereo not shown) | 10^−4 mol · l^−1 | 35.1% | 10^−5 mol · l^−1 | 20% | 15% | 10^−4 mol · l^−1 | – | – | –
COc1ccc(CNc2ncnc3c2ncn3C2CCCO2)cc1O (stereo not shown) | 10^−4 mol · l^−1 | 32% | 10^−6 mol · l^−1 | 47% | 35% | 10^−4 mol · l^−1 | – | – | –
Oc1cc(O)cc(CNc2ncnc3c2ncn3C2CCCCO2)c1 (stereo not shown) | 10^−5 mol · l^−1 | 53% | 10^−6 mol · l^−1 | 45% | 145% | 10^−4 mol · l^−1 | – | – | –
COc1cc(O)cc(OC)c1CNc1ncnc2c1ncn2C1CCCO1 (stereo not shown) | 10^−4 mol · l^−1 | 7% | 10^−5 mol · l^−1 | 31% | 14% | 10^−4 mol · l^−1 | – | – | –
Cc1cc(Nc2ncnc3c2ncn3C2CCCO2)ccc1O (stereo not shown) | 10^−4 mol · l^−1 | 6% | 10^−5 mol · l^−1 | 7% | 4% | 10^−4 mol · l^−1 | – | – | –
CCOC(C)n1cnc2c(NCCC(C)CO)ncnc21 (stereo not shown) | 10^−4 mol · l^−1 | 85% | 10^−4 mol · l^−1 | 95% | 94% | 10^−4 mol · l^−1 | – | – | –
CC(CO)CCNc1ncnc2c1ncn2CCCCCl (stereo not shown) | 10^−4 mol · l^−1 | 81% | 10^−4 mol · l^−1 | 84% | 89% | 10^−4 mol · l^−1 | – | – | –
COc1cc(CNc2ncnc3c2ncn3C2CCCO2)cc(OC)c1O (stereo not shown) | 10^−4 mol · l^−1 | 2% | 10^−5 mol · l^−1 | 27% | 36% | 10^−4 mol · l^−1 | – | – | –
COc1cccc(CNc2ncnc3[nH]cnc23)c1O [2-hydroxy-3-methoxybenzylamino / H, reference compound] | 10^−4 mol · l^−1 | 19% | – | – | 34% | 10^−4 mol · l^−1 | – | – | –
Oc1ccccc1CNc1ncnc2c1ncn2CCCCCl [2-hydroxybenzylamino / 4-chlorobutyl] | 10^−4 mol · l^−1 | 47.5% | – | – | 47.5% | 10^−4 mol · l^−1 | – | – | –
Oc1cc(O)cc(CNc2ncnc3[nH]cnc23)c1 [3,5-dihydroxybenzylamino / H, reference compound] | 10^−5 mol · l^−1 | 53% | 10^−6 mol · l^−1 | 39% | 134% | 10^−4 mol · l^−1 | – | – | –
CCOC(C)n1cnc2c(NCc3cccc(O)c3)ncnc21 (stereo not shown) [3-hydroxybenzylamino / 1-ethoxyethyl] | 10^−4 mol · l^−1 | 108.2% | 10^−4 mol · l^−1 | 109.4% | 108.2% | 10^−4 mol · l^−1 | – | – | –
Oc1cccc(CNc2ncnc3c2ncn3CCCCCl)c1 [3-hydroxybenzylamino / 4-chlorobutyl] | 10^−4 mol · l^−1 | 102.5% | 10^−4 mol · l^−1 | 111.6% | 102.5% | 10^−4 mol · l^−1 | – | – | –
Cc1cc(CNc2ncnc3c2ncn3C2CCCO2)ccc1O (stereo not shown) [4-hydroxy-3-methylbenzylamino / tetrahydrofuran-2-yl] | 10^−4 mol · l^−1 | 2% | 10^−5 mol · l^−1 | 12% | 1.4% | 10^−4 mol · l^−1 | – | – | –
CC(CO)CCNc1ncnc2[nH]cnc12 (stereo not shown) [4-hydroxy-3-methylbutylamino / H, reference compound] | 10^−4 mol · l^−1 | 75% | 10^−5 mol · l^−1 | 83.2% | 89% | 10^−4 mol · l^−1 | – | – | –
Cc1cc(CNc2ncnc3c2ncn3C2CCCO2)ccc1O (stereo not shown) [4-hydroxy-5-methylbenzylamino / tetrahydrofuran-2-yl] | 10^−4 mol · l^−1 | 22% | 10^−5 mol · l^−1 | 2% | 17% | 10^−4 mol · l^−1 | – | – | –
Oc1ccc(Nc2ncnc3c2ncn3C2CCCO2)cc1 (stereo not shown) [4-hydroxyanilino / tetrahydrofuran-2-yl] | 10^−4 mol · l^−1 | 22% | 10^−5 mol · l^−1 | 10% | 28% | 10^−4 mol · l^−1 | – | – | –
Oc1ccc(Nc2ncnc3c2ncn3C2CCCCO2)cc1 (stereo not shown) [4-hydroxyanilino / tetrahydropyran-2-yl, 6-(4-hydroxyanilino)-9-(tetrahydropyran-2-yl)-purine] | 10^−4 mol · l^−1 | 32% | 10^−5 mol · l^−1 | 22% | – | – | 4% | 6% | 16%
